Measured values: PubChem BioAssay (NCI)
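In this assay, cells in 96-well plates receive the compound at five concentrations for 48 hours. Endpoints are linearly interpolated between the surrounding concentrations. Abbreviation: GI50, concentration required for 50% inhibition of growth. TGI denotes the concentration required for complete inhibition of growth.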

Assays:
Test in all cases: DTP human tumour cell line panel, 48 h
A498 renal = tested on: A498 renal
A549 NSCLC = tested on: A549 NSCLC
ACHN renal = tested on: ACHN renal
BT-549 breast = tested on: BT-549 breast
CAKI-1 renal = tested on: CAKI-1 renal
COLO 205 colon = tested on: COLO 205 colon
DU-145 prostate = tested on: DU-145 prostate
EKVX NSCLC = tested on: EKVX NSCLC
HCC-2998 colon = tested on: HCC-2998 colon
HCT-15 colon = tested on: HCT-15 colon
HL-60(TB) leukemia = tested on: HL-60(TB) leukemia
HOP-62 NSCLC = tested on: HOP-62 NSCLC
HT29 colon = tested on: HT29 colon
IGROV1 ovarian = tested on: IGROV1 ovarian
MALME-3M melanoma = tested on: MALME-3M melanoma
MDA-MB-231 breast = tested on: MDA-MB-231 breast
MOLT-4 leukemia = tested on: MOLT-4 leukemia
NCI-H226 lung = tested on: NCI-H226 lung
NCI-H522 lung = tested on: NCI-H522 lung
OVCAR-4 ovarian = tested on: OVCAR-4 ovarian
OVCAR-5 ovarian = tested on: OVCAR-5 ovarian
OVCAR-8 ovarian = tested on: OVCAR-8 ovarian
PC-3 prostate = tested on: PC-3 prostate
RXF 393 renal = tested on: RXF 393 renal
SF-268 CNS = tested on: SF-268 CNS
SF-295 CNS = tested on: SF-295 CNS
SK-MEL-2 melanoma = tested on: SK-MEL-2 melanoma
SK-MEL-28 melanoma = tested on: SK-MEL-28 melanoma
SK-MEL-5 melanoma = tested on: SK-MEL-5 melanoma
SK-OV-3 ovarian = tested on: SK-OV-3 ovarian
SN12C renal = tested on: SN12C renal
SNB-19 CNS = tested on: SNB-19 CNS
SNB-75 CNS = tested on: SNB-75 CNS
SW-620 colon = tested on: SW-620 colon
T-47D breast = tested on: T-47D breast
TK-10 renal = tested on: TK-10 renal
UACC-257 melanoma = tested on: UACC-257 melanoma
UACC-62 melanoma = tested on: UACC-62 melanoma

COc1ccccc1CNCCCCCCCCCCCCN1C(=O)c2ccc3c4c(ccc(c24)C1=O)C(=O)N(CCCCCCCCCCCCNCc1ccccc1OC)C3=O
GI50 (A498 renal): 0.806 µM
TGI (A498 renal): 1.8 µM
GI50 (A549 NSCLC): > 5 µM
TGI (A549 NSCLC): > 5 µM
GI50 (ACHN renal): > 50 µM
TGI (ACHN renal): > 50 µM
GI50 (BT-549 breast): 7.74 µM
TGI (BT-549 breast): 20.2 µM
GI50 (CAKI-1 renal): > 50 µM
TGI (CAKI-1 renal): > 50 µM
GI50 (COLO 205 colon): > 50 µM
TGI (COLO 205 colon): > 50 µM
GI50 (DU-145 prostate): 2.91 µM
TGI (DU-145 prostate): > 50 µM
GI50 (EKVX NSCLC): > 50 µM
TGI (EKVX NSCLC): > 50 µM
GI50 (HCC-2998 colon): > 50 µM
TGI (HCC-2998 colon): > 50 µM
GI50 (HCT-15 colon): > 50 µM
TGI (HCT-15 colon): > 50 µM
GI50 (HL-60(TB) leukemia): > 50 µM
TGI (HL-60(TB) leukemia): > 50 µM
GI50 (HOP-62 NSCLC): 3.64 µM
TGI (HOP-62 NSCLC): > 50 µM
GI50 (HT29 colon): 2.01 µM
TGI (HT29 colon): > 50 µM
GI50 (IGROV1 ovarian): > 50 µM
TGI (IGROV1 ovarian): > 50 µM
GI50 (MALME-3M melanoma): > 50 µM
TGI (MALME-3M melanoma): > 50 µM
GI50 (MDA-MB-231 breast): > 50 µM
TGI (MDA-MB-231 breast): > 50 µM
GI50 (MOLT-4 leukemia): > 50 µM
TGI (MOLT-4 leukemia): > 50 µM
GI50 (NCI-H226 lung): > 50 µM
TGI (NCI-H226 lung): > 50 µM
GI50 (NCI-H522 lung): > 50 µM
TGI (NCI-H522 lung): > 50 µM
GI50 (OVCAR-4 ovarian): > 50 µM
TGI (OVCAR-4 ovarian): > 50 µM
GI50 (OVCAR-5 ovarian): > 50 µM
TGI (OVCAR-5 ovarian): > 50 µM
GI50 (OVCAR-8 ovarian): 0.908 µM
TGI (OVCAR-8 ovarian): 1.94 µM
GI50 (PC-3 prostate): > 5 µM
TGI (PC-3 prostate): > 5 µM
GI50 (RXF 393 renal): 0.922 µM
TGI (RXF 393 renal): 2.11 µM
GI50 (SF-268 CNS): > 50 µM
TGI (SF-268 CNS): > 50 µM
GI50 (SF-295 CNS): 2.24 µM
TGI (SF-295 CNS): > 50 µM
GI50 (SK-MEL-2 melanoma): 1.99 µM
TGI (SK-MEL-2 melanoma): > 50 µM
GI50 (SK-MEL-28 melanoma): > 50 µM
TGI (SK-MEL-28 melanoma): > 50 µM
GI50 (SK-MEL-5 melanoma): 48.9 µM
TGI (SK-MEL-5 melanoma): > 50 µM
GI50 (SK-OV-3 ovarian): > 50 µM
TGI (SK-OV-3 ovarian): > 50 µM
GI50 (SN12C renal): > 50 µM
TGI (SN12C renal): > 50 µM
GI50 (SNB-19 CNS): > 50 µM
TGI (SNB-19 CNS): > 50 µM
GI50 (SNB-75 CNS): 2 µM
TGI (SNB-75 CNS): 46.9 µM
GI50 (SW-620 colon): > 50 µM
TGI (SW-620 colon): > 50 µM
GI50 (T-47D breast): > 50 µM
TGI (T-47D breast): > 50 µM
GI50 (TK-10 renal): 0.795 µM
TGI (TK-10 renal): 1.47 µM
GI50 (UACC-257 melanoma): > 5 µM
TGI (UACC-257 melanoma): > 5 µM
GI50 (UACC-62 melanoma): > 50 µM
TGI (UACC-62 melanoma): > 50 µM
